Data taken from ChEMBL document CHEMBL5113404, “Design, synthesis and biological evaluation of new parbendazole derivatives for the treatment of HNSCC” (Eur J Med Chem, 2022).
pIC50: −log10 of the molar value. Activity calls are given as the source filed them. The rule behind the calls is not given here.

Key:
[1] = Antiproliferative activity against human HN-6 cells assessed as cell growth inhibition incubated for 72 hrs by CCK-8 assay; assay type: functional, cell-based; settings: HN-6, 72 h
CAL-27 = test: Antiproliferative activity against human CAL-27 cells assessed as cell growth inhibition incubated for 72 hrs by CCK-8 assay; assay type: functional, cell-based; settings: CAL-27, 72 h
FaDu = test: Antiproliferative activity against human FaDu cells assessed as cell growth inhibition incubated for 72 hrs by CCK-8 assay; assay type: functional, cell-based; settings: read-out: IC50
Tubulin (Homo sapiens) = Tubulin (Homo sapiens) (UniProt P68371+Q9H4B7+P0DPH7+P68366+Q13509+Q71U36+P04350+Q3ZCM7+P07437+P68363+Q9BQE3+Q6PEY2+Q13885+Q9BVA1+Q9BUF5); test: Inhibition of tubulin polymerization (unknown origin) at 20 micromol/L by fluorescence based analysis; assay type: protein-complex assay; settings: dose 20.0 µmol/L
Tubulin = test: Inhibition of tubulin polymerization (unknown origin) by fluorescence based analysis; assay type: protein-complex assay, Homo sapiens
HN-6 [2] = test: Induction of cell morphological changes in human HN-6 cells assessed as decrease in tubulin network around nucleus at 100 nmol/L incubated for 24 hrs by DAPI staining based confocal microscopy analysis; assay type: functional
[3] = Antimigratory activity in human HN-6 cells assessed as inhibition of cell migration at 0.1 micromol/L measured after 24 hrs by scratch wound assay based fluorescence microscope analysis; assay type: functional; settings: HN-6, 24 h, dose 0.1 µmol/L
HN-6 [4] = test: Inhibition of cell invasion in human HN-6 cells at 200 to 500 nmol/L incubated for 24 hrs by crystal violet staining based transwell assay; assay type: functional; settings: dose 200-500 nmol/L
[5] = Induction of apoptosis in human HN-6 cells assessed as viable cells at 0.1 micromol/L incubated for 24 hrs by Annexin-V/FITC-PI staining based flow cytometry analysis (reference value: 97.26%); assay type: functional; settings: HN-6, 24 h, dose 0.1 µmol/L, read-out: Activity
[6] = Induction of apoptosis in human HN-6 cells assessed as early apoptotic cells at 0.1 micromol/L incubated for 24 hrs by Annexin-V/FITC-PI staining based flow cytometry analysis (reference value: 2.04%); assay type: functional; settings: dose 0.1 µmol/L, at 0.1 µM
[7] = Induction of apoptosis in human HN-6 cells assessed as late apoptotic cells at 0.1 micromol/L incubated for 24 hrs by Annexin-V/FITC-PI staining based flow cytometry analysis (reference value: 8.81%); assay type: functional; settings: dose 0.1 µmol/L, at 0.1 µM
[8] = Induction of apoptosis in human HN-6 cells assessed as necrotic cells at 0.1 micromol/L incubated for 24 hrs by Annexin-V/FITC-PI staining based flow cytometry analysis (reference value: 2.08%); assay type: functional; settings: dose 0.1 µmol/L, at 0.1 µM
[9] = Induction of apoptosis in human HN-6 cells assessed as viable cells at 1 micromol/L incubated for 24 hrs by Annexin-V/FITC-PI staining based flow cytometry analysis (reference value: 97.26%); assay type: functional; settings: HN-6, 24 h, dose 1 µmol/L, read-out: Activity
[10] = Induction of apoptosis in human HN-6 cells assessed as early apoptotic cells at 1 micromol/L incubated for 24 hrs by Annexin-V/FITC-PI staining based flow cytometry analysis (reference value: 2.04%); assay type: functional; settings: dose 1 µmol/L, at 1 µM
[11] = Induction of apoptosis in human HN-6 cells assessed as late apoptotic cells at 1 micromol/L incubated for 24 hrs by Annexin-V/FITC-PI staining based flow cytometry analysis (reference value: 8.81%); assay type: functional; settings: dose 1 µmol/L, at 1 µM
[12] = Induction of apoptosis in human HN-6 cells assessed as necrotic cells at 1 micromol/L incubated for 24 hrs by Annexin-V/FITC-PI staining based flow cytometry analysis (reference value: 2.08%); assay type: functional; settings: dose 1 µmol/L, at 1 µM
[13] = Induction of cell cycle arrest in human HN-6 cells assessed as accumulation of cells at G1 phase at 0.1 micromol/L incubated for 24 hrs by PI staining based flow cytometry analysi (reference value: 45.33%); assay type: functional; settings: dose 0.1 µmol/L, at 0.1 µM
[14] = Induction of cell cycle arrest in human HN-6 cells assessed as accumulation of cells at S phase at 0.1 micromol/L incubated for 24 hrs by PI staining based flow cytometry analysi (reference value: 32.12%); assay type: functional; settings: dose 0.1 µmol/L, at 0.1 µM
[15] = Induction of cell cycle arrest in human HN-6 cells assessed as accumulation of cells at S phase at 0.1 micromol/L incubated for 24 hrs by PI staining based flow cytometry analysi (reference value: 31.19%); assay type: functional; settings: dose 0.1 µmol/L, at 0.1 µM
HN-6 [16] = test: Antitumor activity against human HN-6 cells xenografted in mouse assessed as reduction on tumor growth at 80 mg/kg,IG administered daily for 2 weeks; assay type: functional, organism-based
[17] = Acute toxicity in mouse xenografted with human HN-6 cells assessed as body weight loss at 80 mg/kg,IG administered daily for 2 weeks; assay type: organism-based; settings: in vivo, po, 336 h
Mus musculus [18] = test: Antitumor activity against human HN-6 cells xenografted in mouse serum assessed as reduction on TPS level at 80 mg/kg,IG administered daily for 2 weeks by ELISA; assay type: functional, organism-based
Mus musculus [19] = test: Antitumor activity against human HN-6 cells xenografted in mouse serum assessed as reduction on CYFRA21-1 level at 80 mg/kg,IG administered daily for 2 weeks by ELISA; assay type: functional, organism-based
Mus musculus [20] = test: Antitumor activity against human HN-6 cells xenografted in mouse serum assessed as reduction on SCCAg level at 80 mg/kg,IG administered daily for 2 weeks by ELISA; assay type: functional, organism-based
[21] = Cytotoxicity against human HFF-1 clls assessed as reduction in cell viability incubated for 72 hrs by CCK-8 assay; assay type: toxicity, cell-based; settings: HFF-1 cells
[22] = Acute toxicity in Kunming mouse assessed as adverse effect at 158 mg/kg,IG after 15 days of administration; assay type: organism-based; settings: in vivo, po, 360 h, time 15 day
[23] = Acute toxicity in Kunming mouse assessed as adverse effect at 251 mg/kg,IG after 15 days of administration; assay type: organism-based; settings: in vivo, po, 360 h, time 15 day
[24] = Acute toxicity in Kunming mouse assessed as change in body weight at 158 mg/kg,IG after 15 days of administration; assay type: organism-based; settings: in vivo, po, 360 h, time 15 day
[25] = Acute toxicity in Kunming mouse assessed as change in body weight at 251 mg/kg,IG after 15 days of administration; assay type: organism-based; settings: in vivo, po, 360 h, time 15 day
[26] = Acute toxicity in Kunming mouse assessed as death at 398 mg/kg,IG after 15 days of administration; assay type: organism-based; settings: in vivo, po, 360 h, time 15 day
[27] = Acute toxicity in Kunming mouse assessed as lethargy at 631 mg/kg,IG after 6 hrs of administration; assay type: organism-based; settings: in vivo, po
[28] = Acute toxicity in Kunming mouse assessed as lethargy at 1 g/Kg,IG after 2 hrs of administration; settings: in vivo, po, 1000 mg/kg
[29] = Acute toxicity in Kunming mouse assessed as hypothermia at 631 mg/kg,IG after 6 hrs of administration; assay type: organism-based; settings: in vivo, po
[30] = Acute toxicity in Kunming mouse assessed as hypothermia at 1 g/Kg,IG after 2 hrs of administration; settings: in vivo, po, 1000 mg/kg
[31] = Acute toxicity in Kunming mouse assessed as weakness at 631 mg/kg,IG after 6 hrs of administration; assay type: organism-based; settings: in vivo, po
[32] = Acute toxicity in Kunming mouse assessed as weakness at 1 g/Kg,IG after 2 hrs of administration; settings: in vivo, po, 1000 mg/kg
[33] = Acute toxicity in IG dosed Kunming mouse assessed as lethal dose after 15 days of administration; assay type: organism-based; settings: in vivo, po, time 15 day
[34] = Half life in rat at 100 mg/kg,IG measured upto 24 hrs by HPLC analysis; assay type: ADME, organism-based; settings: in vivo, po
[35] = Tmax in rat at 100 mg/kg,IG measured upto 24 hrs by HPLC analysis; assay type: ADME, organism-based; settings: in vivo, po
[36] = Cmax in rat at 100 mg/kg,IG measured upto 24 hrs by HPLC analysis; assay type: ADME, organism-based; design: dose 100 mg/kg, time < 24 hrs, route ig; settings: in vivo, po
[37] = AUC (0 to t) in rat at 100 mg/kg,IG measured upto 24 hrs by HPLC analysis; assay type: ADME, organism-based; design: dose 100 mg/kg, time < 24 hrs, route ig; settings: in vivo, po

SMILES: CCCCc1ccc2nc(NC(=O)OC(C)C)[nH]c2c1
- pIC50 [1]: 7.46
- pIC50 (CAL-27): 7.03
- pIC50 (FaDu): 6.90
- inhibition (Tubulin (Homo sapiens)): 98.9%
- pIC50 (Tubulin): 5.39
- Activity (HN-6 [2]): Active
- inhibition at 0.1 µM [3]: 6.27%
- inhibition (HN-6 [4]): Active
- viability at 0.1 µM [5]: 62.9%
- Activity [6]: 11.53%
- Activity [7]: 20.59%
- Activity [8]: 5.01%
- viability at 1 µM [9]: 52.6%
- Activity [10]: 16.44%
- Activity [11]: 24.75%
- Activity [12]: 6.23%
- Activity [13]: 14.26%
- Activity [14]: 16.16%
- Activity [15]: 68.08%
- Activity (HN-6 [16]): Active
- Activity [17]: Non-Toxic
- Activity (Mus musculus [18]): Active
- Activity (Mus musculus [19]): Active
- Activity (Mus musculus [20]): Active
- IC50 at 72 h [21]: > 20000 nM
- Activity [22]: Non-Toxic
- Activity [23]: Non-Toxic
- Activity [24]: Non-Toxic
- Activity [25]: Non-Toxic
- Activity [26]: Toxic
- Activity [27]: Toxic
- Activity [28]: Toxic
- Activity [29]: Toxic
- Activity [30]: Toxic
- Activity [31]: Toxic
- Activity [32]: Toxic
- LD50 at 360 h [33]: 341 mg/kg
- half-life [34]: 1.95 h
- Tmax [35]: 2 h
- Cmax [36]: 169 ng/mL
- AUC(0-t) at 24 h [37]: 542 ng·h/mL
